Legend:
[1] = tested on: Mycobacterium smegmatis ATCC 607; test: Antibacterial activity by the agar cylinder plate method, Mycobacterium smegmatis ATCC607; assay type: cell-based; conditions: copper-containing compound, standard bleomycin A2 = 1,000 mcg potency/mg
Description: (§1) (1) Antibacterial activity against Mycobacterium smegmatis ATCC607 and Bacillus subtilis
(§2) The above activity ws determined by the agar cylinder plate method using the above microorganisms.

Bacillus subtilis = test: Antibacterial activity by the agar cylinder plate method, Bacillus subtilis; assay type: cell-based; conditions: copper-containing compound, standard bleomycin A2 = 1,000 mcg potency/mg
Description: as §1, §2

ICR mice = test: Pulmonary toxicity (fibrosis of the lung) in mice; conditions: for Incidence: Number of mice with pulmonary fibrosis/Number of mice in the treatment group / Incidence (%) of pulmonary fibrosis / Grade: Total score for pulmonary fibrosis/Total specimens / Grade of pulmonary fibrosis (total score divided by total number of specimens): 5 mg/kg i.p. once daily for 10 days; for Incidence: Number of mice with pulmonary fibrosis/Number of mice in the treatment group / Incidence (%) of pulmonary fibrosis: autopsy after 5 weeks of observation; for Incidence: Number of mice with pulmonary fibrosis/Number of mice in the treatment group: count; for Incidence (%) of pulmonary fibrosis: percentage in parentheses; for Grade: Total score for pulmonary fibrosis/Total specimens / Grade of pulmonary fibrosis (total score divided by total number of specimens): autopsy after 5 weeks, scores 0, 1, 2, 4, 6 points; for Grade: Total score for pulmonary fibrosis/Total specimens: fraction; for Grade of pulmonary fibrosis (total score divided by total number of specimens): value in parentheses; for Grade ratio: grade of the test compound to that of bleomycin complex; for Incidence ratio: incidence of the test compound to that of bleomycin complex
Description: ICR mice (male, 15-week-old) were used in groups of 10 each. The dose of each test compound was 5 mg/kg injected intraperitoneally once daily for 10 consecutive days. After the administration of the compound was completed, the animals were reared for 5 weeks for observation. Then, the animals were killed and autopsied so that the incidence and grade of pulmonary fibrosis were examined.
The incidence of pulmonary fibrosis was expressed as the number of mice developing pulmonary fibrosis in the group of mice administered the test compound. The grade of pulmonary fibrosis was expressed as the total score for pulmonary fibrosis divided by the total number of specimens.
1 point: Accumulation of exudate in the alveoli, and fibrosis-like changes seen in the alveolar septum.
2 points: Fibrosis seen at several sites.
4 points: Sporadic fibrosis.
6 points: Extensive fibrosis (fibrosis seen in more than 170 of the total region).
The ratio in the table represents the ratio of the incidence of the test compound to that of bleomycin complex, or the ratio of the grade of the test compound to that of bleomycin complex.

Structure (SMILES)	Antibacterial titer of copper-compound [1] [mcg potency/mg]	Antibacterial titer of copper-compound (Bacillus subtilis) [mcg potency/mg]	Incidence: Number of mice with pulmonary fibrosis/Number of mice in the treatment group (ICR mice)	Incidence (%) of pulmonary fibrosis (ICR mice) [%]	Grade: Total score for pulmonary fibrosis/Total specimens (ICR mice)	Grade of pulmonary fibrosis (total score divided by total number of specimens) (ICR mice)	Grade ratio (ICR mice)	Incidence ratio (ICR mice)	Grade of pulmonary fibrosis (total score divided by total number of specimens) (ICR mice; the values are: mean fibrosis score per specimen)
Cc1c(N)nc(C(CC(N)=O)NCC(N)C(N)=O)nc1C(=O)NC(C(=O)NC(C)C(O)C(C)C(=O)NC(C(=O)NCCc1nc(-c2nc(C(=O)NCCCN(CCCCN(Cc3ccccc3)Cc3ccccc3)Cc3ccccc3)cs2)cs1)C(C)O)C(OC1OC(CO)C(O)C(O)C1OC1OC(CO)C(O)C(OC(N)=O)C1O)c1cnc[nH]1 (centres unmarked) [Compound 1, 3-[N-benzyl-N-(4'-dibenzylaminobutyl)amino]propylaminobleomycin]	17360	400	0/10	0	0/30	0	0.00	0.00	–
Cc1c(N)nc(C(CC(N)=O)NCC(N)C(N)=O)nc1C(=O)NC(C(=O)NC(C)C(O)C(C)C(=O)NC(C(=O)NCCc1nc(-c2nc(C(=O)NCCC[N+](C)(C)CCCCN(Cc3ccccc3)Cc3ccccc3)cs2)cs1)C(C)O)C(OC1OC(CO)C(O)C(O)C1OC1OC(CO)C(O)C(OC(N)=O)C1O)c1cnc[nH]1 (centres unmarked) [Compound 11, 3-[N,N-dimethyl-N-(4'-dibenzyl-aminobutyl)amino]propylaminobleomycin]	20160	2528	–	–	–	–	–	–	–
COc1ccc(CN(CCCCN(Cc2ccc(OC)cc2)Cc2ccc(OC)cc2)CCCNC(=O)c2csc(-c3csc(CCNC(=O)C(NC(=O)C(C)C(O)C(C)NC(=O)C(NC(=O)c4nc(C(CC(N)=O)NCC(N)C(N)=O)nc(N)c4C)C(OC4OC(CO)C(O)C(O)C4OC4OC(CO)C(O)C(OC(N)=O)C4O)c4cnc[nH]4)C(C)O)n3)n2)cc1 (centres unmarked) [Compound 4, 3-{N--p-methoxybenzyl-N--[4'-bis(p-methoxybenzyl)aminobutyl]amino}propylaminobleomycin]	11109	197	0/10	0	0/30	0	0.00	0.00	–
Cc1c(N)nc(C(CC(N)=O)NCC(N)C(N)=O)nc1C(=O)NC(C(=O)NC(C)C(O)C(C)C(=O)NC(C(=O)NCCc1nc(-c2nc(C(=O)NCCCN(CCCCN(Cc3ccc(Cl)cc3)Cc3ccc(Cl)cc3)Cc3ccc(Cl)cc3)cs2)cs1)C(C)O)C(OC1OC(CO)C(O)C(O)C1OC1OC(CO)C(O)C(OC(N)=O)C1O)c1cnc[nH]1 (centres unmarked) [Compound 2, 3-{N--p-chlorobenzyl-N--[4'-bis(p-chlorobenzyl)aminobutyl]amino}propylaminobleomycin]	613	129	0/10	0	0/30	0	0.00	0.00	–
CCCCCN(CCCCC)CCCCN(CCCCC)CCCNC(=O)c1csc(-c2csc(CCNC(=O)C(NC(=O)C(C)C(O)C(C)NC(=O)C(NC(=O)c3nc(C(CC(N)=O)NCC(N)C(N)=O)nc(N)c3C)C(OC3OC(CO)C(O)C(O)C3OC3OC(CO)C(O)C(OC(N)=O)C3O)c3cnc[nH]3)C(C)O)n2)n1 (centres unmarked) [Compound 9, 3-{N--n-pentyl-N--[4'-bis(n-pentyl)aminobutyl]amino}propylaminobleomycin]	57408	3520	0/10	0	0/30	0	0.00	0.00	–
CCCCCCCCCCN(CCCCCCCCCC)CCCCN(CCCCCCCCCC)CCCNC(=O)c1csc(-c2csc(CCNC(=O)C(NC(=O)C(C)C(O)C(C)NC(=O)C(NC(=O)c3nc(C(CC(N)=O)NCC(N)C(N)=O)nc(N)c3C)C(OC3OC(CO)C(O)C(O)C3OC3OC(CO)C(O)C(OC(N)=O)C3O)c3cnc[nH]3)C(C)O)n2)n1 (centres unmarked) [Compound 8, 3-{N--n-decyl-N--[4'-bis(n-decyl)-aminobutyl]amino}propylaminobleomycin]	295	75	0/10	0	0/30	0	0.00	0.00	–
Cc1c(N)nc(C(CC(N)=O)NCC(N)C(N)=O)nc1C(=O)NC(C(=O)NC(C)C(O)C(C)C(=O)NC(C(=O)NCCc1nc(-c2nc(C(=O)NCCCN(CCCCN(Cc3ccc(OCc4ccccc4)c(OCc4ccccc4)c3)Cc3ccc(OCc4ccccc4)c(OCc4ccccc4)c3)Cc3ccc(OCc4ccccc4)c(OCc4ccccc4)c3)cs2)cs1)C(C)O)C(OC1OC(CO)C(O)C(O)C1OC1OC(CO)C(O)C(OC(N)=O)C1O)c1cnc[nH]1 (centres unmarked) [Compound 10, 3-{N-m,p-dibenzyloxybenzyl-N-[4'bis(m,p-dibenzyloxybenzyl)aminobutyl]amino}propylaminobleomycin]	136	6	0/10	0	0/30	0	0.00	0.00	–
Cc1c(N)nc(C(CC(N)=O)NCC(N)C(N)=O)nc1C(=O)NC(C(=O)NC(C)C(O)C(C)C(=O)NC(C(=O)NCCc1nc(-c2nc(C(=O)NCCC[N+](C)(CCCCN(Cc3ccccc3)Cc3ccccc3)Cc3ccccc3)cs2)cs1)C(C)O)C(OC1OC(CO)C(O)C(O)C1OC1OC(CO)C(O)C(OC(N)=O)C1O)c1cnc[nH]1 (centres unmarked) [Compound 12, 3-[N--methyl-N--benzyl-N--(4'-dibenzyl-aminobutyl)amino]propylaminobleomycin]	13733	832	0/10	0	0/30	0	0.00	0.00	–
Cc1c(N)nc(C(CC(N)=O)NCC(N)C(N)=O)nc1C(=O)NC(C(=O)NC(C)C(O)C(C)C(=O)NC(C(=O)NCCc1nc(-c2nc(C(=O)NCCCN(CCCCN(CC3CCCCCCC3)CC3CCCCCCC3)CC3CCCCCCC3)cs2)cs1)C(C)O)C(OC1OC(CO)C(O)C(O)C1OC1OC(CO)C(O)C(OC(N)=O)C1O)c1cnc[nH]1 (centres unmarked) [Compound 6, 3-{N--cyclooctylmethyl-N--[4'-bis(cyclooctylmethyl)aminobutyl]amino}propylaminobleomycin]	530	61	0/10	0	0/30	0	0.00	0.00	–
Cc1c(N)nc(C(CC(N)=O)NCC(N)C(N)=O)nc1C(=O)NC(C(=O)NC(C)C(O)C(C)C(=O)NC(C(=O)NCCc1nc(-c2nc(C(=O)NCCCN(CCCCN(Cc3ccc(Cl)c(Cl)c3)Cc3ccc(Cl)c(Cl)c3)Cc3ccc(Cl)c(Cl)c3)cs2)cs1)C(C)O)C(OC1OC(CO)C(O)C(O)C1OC1OC(CO)C(O)C(OC(N)=O)C1O)c1cnc[nH]1 (centres unmarked) [Compound 3, 3-{N--m,p-dichlorobenzyl-N--[4'-bis(m,p-dichlorobenzyl)aminobutyl]amino}propylaminobleomycin]	217	43	0/10	0	0/30	0	0.00	0.00	–
Cc1c(N)nc(C(CC(N)=O)NCC(N)C(N)=O)nc1C(=O)NC(C(=O)NC(C)C(O)C(C)C(=O)NC(C(=O)NCCc1nc(-c2nc(C(=O)NCCCNCCCCN)cs2)cs1)C(C)O)C(OC1OC(CO)C(O)C(O)C1OC1OC(CO)C(O)C(OC(N)=O)C1O)c1c[nH]cn1 (centres unmarked) [Compound A5, 3-(4'-aminobutylamino)propylaminobleomycin, reference compound]	–	–	5/10	50	5/30	–	0.29	0.71	0.17

Reference: patent US4808703A, “Novel 3-(4'-aminobutylamino) propylaminobleomycin derivatives” (Zaidan Hojin Biseibutsu Kagaku Kenku Kai, priority 1983, dated 1989)
